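All cell lines were grown in 96-well plates and treated with compound for 48 hours. TGI: concentration producing complete growth inhibition.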
Assays:
Assay in all cases: NCI-60 cell line screen, 48 h
SK-MEL-2 melanoma = tested on: SK-MEL-2 melanoma
OVCAR-5 ovarian = tested on: OVCAR-5 ovarian
LOX IMVI melanoma = tested on: LOX IMVI melanoma
MDA-MB-231 breast = tested on: MDA-MB-231 breast
NCI-H460 lung = tested on: NCI-H460 lung
CAKI-1 renal = tested on: CAKI-1 renal
786-0 renal = tested on: 786-0 renal
HOP-62 NSCLC = tested on: HOP-62 NSCLC
NCI-H23 lung = tested on: NCI-H23 lung
CCRF-CEM leukemia = tested on: CCRF-CEM leukemia
RXF 393 renal = tested on: RXF 393 renal
HCT-15 colon = tested on: HCT-15 colon
PC-3 prostate = tested on: PC-3 prostate
NCI-H522 lung = tested on: NCI-H522 lung
UO-31 renal = tested on: UO-31 renal
T-47D breast = tested on: T-47D breast
SK-MEL-5 melanoma = tested on: SK-MEL-5 melanoma
A498 renal = tested on: A498 renal
KM12 colon = tested on: KM12 colon
SN12C renal = tested on: SN12C renal
SF-268 CNS = tested on: SF-268 CNS
MDA-MB-435 = tested on: MDA-MB-435
DU-145 prostate = tested on: DU-145 prostate
MDA-N = tested on: MDA-N
NCI/ADR-RES ovarian = tested on: NCI/ADR-RES ovarian
MALME-3M melanoma = tested on: MALME-3M melanoma
SNB-19 CNS = tested on: SNB-19 CNS
M14 melanoma = tested on: M14 melanoma
HOP-92 NSCLC = tested on: HOP-92 NSCLC
UACC-62 melanoma = tested on: UACC-62 melanoma
A549 NSCLC = tested on: A549 NSCLC
HT29 colon = tested on: HT29 colon
OVCAR-8 ovarian = tested on: OVCAR-8 ovarian
MOLT-4 leukemia = tested on: MOLT-4 leukemia
UACC-257 melanoma = tested on: UACC-257 melanoma
HS 578T breast = tested on: HS 578T breast
OVCAR-3 ovarian = tested on: OVCAR-3 ovarian
RPMI-8226 leukemia = tested on: RPMI-8226 leukemia
BT-549 breast = tested on: BT-549 breast
SK-OV-3 ovarian = tested on: SK-OV-3 ovarian
U251 CNS = tested on: U251 CNS
EKVX NSCLC = tested on: EKVX NSCLC
IGROV1 ovarian = tested on: IGROV1 ovarian
SK-MEL-28 melanoma = tested on: SK-MEL-28 melanoma
SF-295 CNS = tested on: SF-295 CNS
SW-620 colon = tested on: SW-620 colon
MCF7 breast = tested on: MCF7 breast
SNB-75 CNS = tested on: SNB-75 CNS
COLO 205 colon = tested on: COLO 205 colon
OVCAR-4 ovarian = tested on: OVCAR-4 ovarian
TK-10 renal = tested on: TK-10 renal
HCT-116 colon = tested on: HCT-116 colon
HL-60(TB) leukemia = tested on: HL-60(TB) leukemia
SF-539 CNS = tested on: SF-539 CNS
SR leukemia = tested on: SR leukemia
NCI-H226 lung = tested on: NCI-H226 lung
ACHN renal = tested on: ACHN renal
LXFL 529 NSCLC = tested on: LXFL 529 NSCLC
DMS 273 small cell lung = tested on: DMS 273 small cell lung
DLD-1 colon = tested on: DLD-1 colon
KM20L2 colon = tested on: KM20L2 colon
DMS 114 small cell lung = tested on: DMS 114 small cell lung
M19-MEL melanoma = tested on: M19-MEL melanoma
K-562 leukemia = tested on: K-562 leukemia
XF 498 CNS = tested on: XF 498 CNS
HCC-2998 colon = tested on: HCC-2998 colon

Structure (SMILES): C[C@]12CC[C@@H]3c4ccc(OCC(=O)O)cc4CC[C@H]3[C@@H]1CCC2=O
- TGI (SK-MEL-2 melanoma): > 100 µM
- TGI (OVCAR-5 ovarian): > 100 µM
- TGI (LOX IMVI melanoma): > 100 µM
- TGI (MDA-MB-231 breast): > 100 µM
- TGI (NCI-H460 lung): > 100 µM
- TGI (CAKI-1 renal): > 100 µM
- TGI (786-0 renal): > 100 µM
- TGI (HOP-62 NSCLC): > 100 µM
- TGI (NCI-H23 lung): > 100 µM
- TGI (CCRF-CEM leukemia): 4.48 µM
- TGI (RXF 393 renal): > 100 µM
- TGI (HCT-15 colon): > 100 µM
- TGI (PC-3 prostate): > 100 µM
- TGI (NCI-H522 lung): > 100 µM
- TGI (UO-31 renal): > 100 µM
- TGI (T-47D breast): > 100 µM
- TGI (SK-MEL-5 melanoma): > 100 µM
- TGI (A498 renal): > 100 µM
- TGI (KM12 colon): > 100 µM
- TGI (SN12C renal): > 100 µM
- TGI (SF-268 CNS): > 100 µM
- TGI (MDA-MB-435): > 100 µM
- TGI (DU-145 prostate): > 100 µM
- TGI (MDA-N): > 100 µM
- TGI (NCI/ADR-RES ovarian): > 100 µM
- TGI (MALME-3M melanoma): > 100 µM
- TGI (SNB-19 CNS): > 100 µM
- TGI (M14 melanoma): > 100 µM
- TGI (HOP-92 NSCLC): > 100 µM
- TGI (UACC-62 melanoma): > 100 µM
- TGI (A549 NSCLC): > 100 µM
- TGI (HT29 colon): > 100 µM
- TGI (OVCAR-8 ovarian): > 100 µM
- TGI (MOLT-4 leukemia): 64.4 µM
- TGI (UACC-257 melanoma): > 100 µM
- TGI (HS 578T breast): > 100 µM
- TGI (OVCAR-3 ovarian): > 100 µM
- TGI (RPMI-8226 leukemia): > 100 µM
- TGI (BT-549 breast): > 100 µM
- TGI (SK-OV-3 ovarian): > 100 µM
- TGI (U251 CNS): > 100 µM
- TGI (EKVX NSCLC): > 100 µM
- TGI (IGROV1 ovarian): > 100 µM
- TGI (SK-MEL-28 melanoma): > 100 µM
- TGI (SF-295 CNS): > 100 µM
- TGI (SW-620 colon): > 100 µM
- TGI (MCF7 breast): > 100 µM
- TGI (SNB-75 CNS): > 100 µM
- TGI (COLO 205 colon): > 100 µM
- TGI (OVCAR-4 ovarian): > 100 µM
- TGI (TK-10 renal): > 100 µM
- TGI (HCT-116 colon): > 100 µM
- TGI (HL-60(TB) leukemia): 0.317 µM
- TGI (SF-539 CNS): > 100 µM
- TGI (SR leukemia): > 100 µM
- TGI (NCI-H226 lung): > 100 µM
- TGI (ACHN renal): > 100 µM

Structure (SMILES): Clc1ccc2c(Cl)ncnc2c1I
- TGI (SK-MEL-2 melanoma): > 100 µM
- TGI (OVCAR-5 ovarian): > 100 µM
- TGI (LOX IMVI melanoma): > 100 µM
- TGI (NCI-H460 lung): > 100 µM
- TGI (CAKI-1 renal): > 100 µM
- TGI (786-0 renal): > 100 µM
- TGI (HOP-62 NSCLC): > 100 µM
- TGI (NCI-H23 lung): > 100 µM
- TGI (LXFL 529 NSCLC): > 100 µM
- TGI (RXF 393 renal): > 100 µM
- TGI (HCT-15 colon): > 100 µM
- TGI (NCI-H522 lung): 56.6 µM
- TGI (UO-31 renal): > 100 µM
- TGI (SK-MEL-5 melanoma): > 100 µM
- TGI (KM12 colon): > 100 µM
- TGI (SN12C renal): > 100 µM
- TGI (SF-268 CNS): > 100 µM
- TGI (DMS 273 small cell lung): > 100 µM
- TGI (MALME-3M melanoma): > 100 µM
- TGI (SNB-19 CNS): > 100 µM
- TGI (M14 melanoma): > 100 µM
- TGI (UACC-62 melanoma): > 100 µM
- TGI (DLD-1 colon): > 100 µM
- TGI (A549 NSCLC): > 100 µM
- TGI (HT29 colon): > 100 µM
- TGI (KM20L2 colon): > 100 µM
- TGI (OVCAR-8 ovarian): > 100 µM
- TGI (DMS 114 small cell lung): > 100 µM
- TGI (M19-MEL melanoma): > 100 µM
- TGI (MOLT-4 leukemia): 61.4 µM
- TGI (UACC-257 melanoma): > 100 µM
- TGI (K-562 leukemia): > 100 µM
- TGI (OVCAR-3 ovarian): > 100 µM
- TGI (RPMI-8226 leukemia): > 100 µM
- TGI (XF 498 CNS): > 100 µM
- TGI (SK-OV-3 ovarian): > 100 µM
- TGI (U251 CNS): > 100 µM
- TGI (EKVX NSCLC): 99.4 µM
- TGI (HCC-2998 colon): > 100 µM
- TGI (IGROV1 ovarian): > 100 µM
- TGI (SK-MEL-28 melanoma): > 100 µM
- TGI (SF-295 CNS): > 100 µM
- TGI (SW-620 colon): > 100 µM
- TGI (SNB-75 CNS): 75 µM
- TGI (COLO 205 colon): > 100 µM
- TGI (OVCAR-4 ovarian): > 100 µM
- TGI (TK-10 renal): > 100 µM
- TGI (HCT-116 colon): > 100 µM
- TGI (HL-60(TB) leukemia): 44.6 µM
- TGI (SR leukemia): > 100 µM
- TGI (NCI-H226 lung): 93.3 µM

Structure (SMILES): O=C1CC(n2cccc2)c2cc(Br)sc21 (stereo not given)
- TGI (SK-MEL-2 melanoma): > 100 µM
- TGI (OVCAR-5 ovarian): > 100 µM
- TGI (LOX IMVI melanoma): > 100 µM
- TGI (MDA-MB-231 breast): > 100 µM
- TGI (NCI-H460 lung): > 100 µM
- TGI (CAKI-1 renal): > 100 µM
- TGI (786-0 renal): > 100 µM
- TGI (HOP-62 NSCLC): > 100 µM
- TGI (NCI-H23 lung): > 100 µM
- TGI (CCRF-CEM leukemia): 60 µM
- TGI (HCT-15 colon): > 100 µM
- TGI (PC-3 prostate): > 100 µM
- TGI (NCI-H522 lung): 75.5 µM
- TGI (UO-31 renal): > 100 µM
- TGI (T-47D breast): > 100 µM
- TGI (SK-MEL-5 melanoma): > 100 µM
- TGI (A498 renal): > 100 µM
- TGI (KM12 colon): > 100 µM
- TGI (SN12C renal): > 100 µM
- TGI (SF-268 CNS): > 100 µM
- TGI (MDA-MB-435): > 100 µM
- TGI (DU-145 prostate): > 100 µM
- TGI (MDA-N): > 100 µM
- TGI (NCI/ADR-RES ovarian): > 100 µM
- TGI (MALME-3M melanoma): > 100 µM
- TGI (SNB-19 CNS): > 100 µM
- TGI (M14 melanoma): > 100 µM
- TGI (HOP-92 NSCLC): > 100 µM
- TGI (UACC-62 melanoma): > 100 µM
- TGI (A549 NSCLC): > 100 µM
- TGI (HT29 colon): > 100 µM
- TGI (OVCAR-8 ovarian): > 100 µM
- TGI (MOLT-4 leukemia): 87 µM
- TGI (UACC-257 melanoma): > 100 µM
- TGI (K-562 leukemia): > 100 µM
- TGI (HS 578T breast): > 100 µM
- TGI (OVCAR-3 ovarian): > 100 µM
- TGI (RPMI-8226 leukemia): 69.9 µM
- TGI (BT-549 breast): > 100 µM
- TGI (SK-OV-3 ovarian): > 100 µM
- TGI (U251 CNS): > 100 µM
- TGI (EKVX NSCLC): > 100 µM
- TGI (IGROV1 ovarian): > 100 µM
- TGI (SK-MEL-28 melanoma): > 100 µM
- TGI (SF-295 CNS): > 100 µM
- TGI (SW-620 colon): > 100 µM
- TGI (MCF7 breast): > 100 µM
- TGI (SNB-75 CNS): > 100 µM
- TGI (COLO 205 colon): > 100 µM
- TGI (OVCAR-4 ovarian): > 100 µM
- TGI (TK-10 renal): > 100 µM
- TGI (HCT-116 colon): > 100 µM
- TGI (HL-60(TB) leukemia): > 100 µM
- TGI (SF-539 CNS): > 100 µM
- TGI (SR leukemia): > 100 µM
- TGI (NCI-H226 lung): > 100 µM
- TGI (ACHN renal): > 100 µM

From PubChem BioAssay (NCI)
